The values below come from US8492537B2, “Nucleosides for suppressing or reducing the development of resistance in cytostatic therapy” (RESprotect GmbH, priority 2006, dated 2013).

In general, melting point refers to the temperature, or range, at which the solid turns liquid.

Molecules are shown by their SMILES.

The compound `CO[C@H]1C[C@H](n2cc(/C=C/Br)c(=O)[nH]c2=O)O[C@@H]1CF` [2.1.4, 3′-O-methyl-5′-fluoro-2′,5′-dideoxy-5-(E)-bromovinyluridine] registered a melting point of 177 °C.
Next, `CC(C)[C@H](NC(=O)OC(C)(C)C)C(=O)N[C@H](C(=O)O[C@H]1C[C@H](n2cc(/C=C/Br)c(=O)[nH]c2=O)O[C@@H]1CN=[N+]=[N-])C(C)C` [2.2.2.9, 5′-azido-3′-O—(N-t-butyloxycarbonyl-L-valyl-L-valinoyl)-2′,5′-dideoxy-5-(E)-bromovinyluridine]: 133 to 135 °C; `C[C@H]1O[C@@H](n2cc(/C=C/Br)c(=O)[nH]c2=O)C[C@@H]1Cl` [8.2, 3′-chloro-2′,3′,5′-trideoxy-5-(E)-bromovinyluridine]: 134 °C; `CC(=O)O[C@H]1C[C@H](n2cc(/C=C/Br)c(=O)[nH]c2=O)O[C@@H]1C(O)F` (stereo partly shown) [2.2.1, 3′-O-acetyl-5′-fluoro-2′-deoxy-5-(E)-bromovinyluridine]: 81 °C.
Next, `CCCCOC(=O)N[C@H](C(=O)O[C@H]1C[C@H](n2cc(/C=C/Br)c(=O)[nH]c2=O)O[C@@H]1CCl)C(C)C` [2.2.2.5, 3′-O—(N-4-butyloxycarbonyl-L-valinoyl)-5′-chloro-2′,5′-dideoxy-5-(E)-bromovinyluridine]: 87 to 88 °C; `CO[C@H]1C[C@H](n2cc(/C=C/Br)c(=O)[nH]c2=O)O[C@@H]1CCl` [2.1.2, 3′-O-methyl-5′-chloro-2′,5′-dideoxy-5-(E)-bromovinyluridine]: 145 °C.
Next, `CC(=O)O[C@H]1C[C@H](n2cc(/C=C/Br)c(=O)[nH]c2=O)O[C@@H]1CC#N` [10.3, 3′-O-acetyl-5′-cyano-2′,5′-dideoxy-5-(E)-bromovinyluridine]: 96 °C; `O=c1[nH]c(=O)n([C@H]2C[C@H](F)[C@@H](CCl)O2)cc1/C=C/Br` [3.2, 3′-fluoro-5′-chloro-2′,3′,5′-trideoxy-5-(E)-bromovinyluridine]: 203 °C.
In turn, `CC(C)[C@H](NC(=O)OC(C)(C)C)C(=O)N[C@H](C(=O)OC[C@H]1O[C@@H](n2cc(/C=C/Br)c(=O)[nH]c2=O)C[C@@H]1N=[N+]=[N-])C(C)C` [1.2.2.9, 3′-azido-5′-O—(N-t-butyloxycarbonyl-L-valyl-L-valinoyl)-2′,3′-dideoxy-5-(E)-bromovinyluridine] had a melting point of 95 to 97 °C.
Next, `CC(C)[C@H](NC(=O)OC(C)(C)C)C(=O)N[C@H](C(=O)O[C@H]1C[C@H](n2cc(/C=C/Br)c(=O)[nH]c2=O)O[C@@H]1CCl)C(C)C` [2.2.2.7, 3′-O—(N-t-butyloxycarbonyl-L-valyl-L-valinoyl)-5′-chloro-2′,5′-dideoxy-5-(E)-bromovinyluridine]: 114 to 116 °C.
Compound `O=c1[nH]c(=O)n([C@H]2C[C@H](O)[C@@H](CF)O2)cc1/C=C/Br` [2.1.1, 2′,5′-dideoxy-5′-fluoro-5-(E)-bromovinyluridine] registered a melting point of 208 °C.
Next, `CC(C)[C@H](NC(=O)OC(C)(C)C)C(=O)N[C@H](C(=O)OC[C@H]1O[C@@H](n2cc(/C=C/Br)c(=O)[nH]c2=O)C[C@@H]1Cl)C(C)C` [1.2.2.7, 5′-O—(N-t-butyloxycarbonyl-L-valyl-L-valinoyl)-3′-chloro-2′,3′-dideoxy-5-(E)-bromovinyluridine]: 102 to 103 °C; `O=c1[nH]c(=O)n([C@H]2C[C@H](F)[C@@H](CF)O2)cc1/C=C/Br` [3.1, 3′,5′-difluoro-2′,3′,5′-trideoxy-5-(E)-bromovinyluridine]: 177 to 180 °C; `CC(=O)N[C@H]1C[C@H](n2cc(/C=C/Br)c(=O)[nH]c2=O)O[C@@H]1CBr` [1.4.2, 3′-acetamido-5′-bromo-2′,3′,5′-trideoxy-5-(E)-bromovinyluridine]: 178 to 180 °C.
Next, `[N-]=[N+]=NC[C@H]1O[C@@H](n2cc(/C=C/Br)c(=O)[nH]c2=O)C[C@@H]1Cl` [3.5.3, 5′-azido-3′-chloro-2′,3′,5′-trideoxy-5-(E)-bromovinyluridine]: 58 to 60 °C; `[N-]=[N+]=N[C@H]1C[C@H](n2cc(/C=C/Br)c(=O)[nH]c2=O)O[C@@H]1CCl` [3.5.4, 3′-azido-5′-chloro-2′,3′,5′-trideoxy-5-(E)-bromovinyluridine]: 124 to 125 °C; `N#CC[C@H]1O[C@@H](n2cc(/C=C/Br)c(=O)[nH]c2=O)C[C@@H]1O` [compound 10, 5′-cyano-2′,5′-dideoxy-5-(E)-bromovinyluridine]: 177 °C (dec.).
Next, `C[C@H]1O[C@@H](n2cc(/C=C/Br)c(=O)[nH]c2=O)C[C@@H]1O` [8.1, 2′,5′-dideoxy-5-(E)-bromovinyluridine]: 174 °C (dec.); `CC(C)[C@H](NC(=O)OC(C)(C)C)C(=O)OC[C@H]1O[C@@H](n2cc(/C=C/Br)c(=O)[nH]c2=O)C[C@@H]1Cl` [1.2.2.5, 5′-O—(N-t-butyloxycarbonyl-L-valinoyl)-3′-chloro-2′,3′-dideoxy-5-(E)-bromovinyluridine]: 75 to 76 °C; `O=c1[nH]c(=O)n([C@H]2C[C@H](Cl)[C@@H](CBr)O2)cc1/C=C/Br` [3.5, 3′-chloro-5′-bromo-2′,3′,5′-trideoxy-5-(E)-bromovinyluridine]: 149 °C.
For `O=c1[nH]c(=O)n([C@H]2C=C[C@@H](CO)O2)cc1/C=C/Br` [4.1, 2′,3′-didehydro-2′,3′-dideoxy-5-(E)-bromovinyluridine], the melting point is > 250 °C (dec.).
With `CO[C@H]1C[C@H](n2cc(/C=C/Br)c(=O)n(C)c2=O)O[C@@H]1CF` [2.1.3, 3′-O-methyl-5′-fluoro-2′,5′-dideoxy-3-methyl-5-(E)-bromovinyluridine], the melting point turned out to be 95 °C.
Next, `O=c1[nH]c(=O)n([C@@H]2O[C@H](CBr)[C@@H](O)[C@H]2F)cc1/C=C/Br` [5.2, 2′-fluoro-5′-bromo-2′,5′-dideoxy-5-(E)-bromovinyluridine]: 223 °C.
For the compound `O=c1[nH]c(=O)n([C@@H]2O[C@H](CO)[C@@H](O)[C@H]2F)cc1/C=C/Br` [5.1, 2′-fluoro-2′-deoxy-5-(E)-bromovinyluridine], the melting point is 182 °C.
Next, `O=c1[nH]c(=O)n([C@H]2C[C@H](Br)[C@@H](CBr)O2)cc1/C=C/Br` [3.6, 3′,5′-dibromo-2′,3′,5′-trideoxy-5-(E)-bromovinyluridine]: 153 °C; `O=c1[nH]c(=O)n([C@H]2C[C@H](Cl)[C@@H](CCl)O2)cc1/C=C/Br` [3.3, 3′,5′-dichloro-2′,3′,5′-trideoxy-5-(E)-bromovinyluridine]: 184 °C; `O=c1[nH]c(=O)n([C@H]2C=C[C@@H](CBr)O2)cc1/C=C/Br` [4.2, 2′,3′-didehydro-2′,3′,5′-trideoxy-5′-bromo-5-(E)-bromovinyluridine]: more than 150 °C.
Next, `O=c1[nH]c(=O)n([C@@H]2O[C@H](CBr)[C@@H](O)[C@H]2O)cc1/C=C/Br` [2.3, 5′-bromo-5′-deoxy-5-(E)-bromovinyluridine]: 201 °C.
